One test has as its target T1, GLP-2R K231^2.67A (Homo sapiens, UniProt O95838, K231A).
T1 sequence (O95838 1-553 K231A): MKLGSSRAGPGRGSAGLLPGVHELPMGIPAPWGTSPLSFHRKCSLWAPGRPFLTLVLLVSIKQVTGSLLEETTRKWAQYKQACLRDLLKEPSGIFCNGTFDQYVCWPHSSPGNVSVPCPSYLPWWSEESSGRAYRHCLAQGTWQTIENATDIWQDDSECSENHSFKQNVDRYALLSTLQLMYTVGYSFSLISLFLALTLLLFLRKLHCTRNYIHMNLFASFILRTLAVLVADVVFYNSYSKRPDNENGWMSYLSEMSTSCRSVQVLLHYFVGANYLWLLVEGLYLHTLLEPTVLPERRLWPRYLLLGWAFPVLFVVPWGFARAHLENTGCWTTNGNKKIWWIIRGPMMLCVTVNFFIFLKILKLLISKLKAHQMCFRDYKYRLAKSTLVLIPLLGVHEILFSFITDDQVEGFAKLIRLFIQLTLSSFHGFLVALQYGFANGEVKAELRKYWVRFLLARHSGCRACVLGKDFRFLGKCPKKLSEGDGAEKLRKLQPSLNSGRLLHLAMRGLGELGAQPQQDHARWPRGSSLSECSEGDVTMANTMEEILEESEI
Kind of test: radioligand competition binding, K231^2.67A. Also noted: WT (1–553); expressed in transfected cells. The settings on record: COS-7, K231^2.67A; [^125I]GLP-2(1–33, M10Y) 10–15 pM, 4 h, 4 °C; n ≥ 3 in duplicate. As for the experimental part: (§1) A stepwise oxidation reaction was performed by addition of 6 aliquots of 5 µL ChloramineT (30 µL/mL) with a 1-min interval during constant stirring. The reaction was terminated by the addition of 400 µL phase A (0.1% trifluoracetic acid) before being fractionated into 1 mL volume by reverse-phase high-performance liquid chromatography (RP-HPLC, Waters 600 SimiPrep system) on a C18 column. The iodinated protein was […] by increasing concentrations of phase B (Acetonitrile + 0.1% TFA) and tested for competitive binding ability.
(§2) One day before transfection, the COS-7 cells were seeded in 75 cm^2 culture flasks (3 million cells/flask) in DMEM, containing 3.9 g/L NaHCO3 and supplemented with 10% FBS, 1% L-glutamine, 180 units/mL penicillin and 45 µg/mL streptomycin. After an overnight culture at 37 °C, 10% CO2 and 95% air humidity, the cells were transiently transfected with different GLP-2R constructs or pcDNA3.1 vector as previously described.[52] Following 24-h incubation, the cells were transferred to Costa® microtiter plates (150,000 cells/well, PerkinElmer) to achieve a 5%–10% specific binding. […] The cells were then washed twice in binding buffer (4 °C), lysed and counted for radioactivity using a Wallac Gamma Counter (PerkinElmer).
(In general: In a radioligand displacement assay an active substance lowers the binding of a labelled ligand.)

The target of a further test is T2, GLP-2R R242^ECL1E (Homo sapiens, UniProt O95838, R242E).
T2 sequence (O95838 1-553 R242E): T1 sequence (O95838 1-553 K231A) with A231K, R242E
Kind of test: radioligand competition binding, R242^ECL1E. Set-up: WT (1–553); expressed in transfected cells. The settings on record: COS-7, R242^ECL1E; [^125I]GLP-2(1–33, M10Y) 10–15 pM, 4 h, 4 °C; n ≥ 3 in duplicate. As for the experimental part:
as §1, §2

The next test addresses T3, GLP-2R WT (1–553) (Homo sapiens, UniProt O95838).
T3 construct: WT (1–553); expressed in transfected cells; host or cells: COS-7
Kind of test: radioligand competition binding, WT. The settings on record: COS-7, WT (1–553); [^125I]GLP-2(1–33, M10Y) 10–15 pM, 4 h, 4 °C; mean ± SEM, n ≥ 3 in duplicate. As for the experimental part:
as §1, §2

The next test concerns the target T4, GLP-2R N334^ECL2A (Homo sapiens, UniProt O95838, N334A).
T4 sequence (O95838 1-553 N334A): T1 sequence (O95838 1-553 K231A) with A231K, N334A
The test can be described thus: radioligand competition binding, N334^ECL2A. The settings on record: COS-7, N334^ECL2 A; [^125I]GLP-2(1–33, M10Y) 10–15 pM, 4 h, 4 °C; mean ± SEM, n ≥ 3 in duplicate. Also noted: WT (1–553); expressed in transfected cells; host or cells: COS-7. As for the experimental part: as §1, §2

Here are results for two compounds from publication PMC7785020, “A unique hormonal recognition feature of the human glucagon-like peptide-2 receptor” (Cell Research, 2020).

SMILES strings stand for the structures. Where a chain is given by its changes, count along the chain named.

T3 sequence (O95838 whole entry): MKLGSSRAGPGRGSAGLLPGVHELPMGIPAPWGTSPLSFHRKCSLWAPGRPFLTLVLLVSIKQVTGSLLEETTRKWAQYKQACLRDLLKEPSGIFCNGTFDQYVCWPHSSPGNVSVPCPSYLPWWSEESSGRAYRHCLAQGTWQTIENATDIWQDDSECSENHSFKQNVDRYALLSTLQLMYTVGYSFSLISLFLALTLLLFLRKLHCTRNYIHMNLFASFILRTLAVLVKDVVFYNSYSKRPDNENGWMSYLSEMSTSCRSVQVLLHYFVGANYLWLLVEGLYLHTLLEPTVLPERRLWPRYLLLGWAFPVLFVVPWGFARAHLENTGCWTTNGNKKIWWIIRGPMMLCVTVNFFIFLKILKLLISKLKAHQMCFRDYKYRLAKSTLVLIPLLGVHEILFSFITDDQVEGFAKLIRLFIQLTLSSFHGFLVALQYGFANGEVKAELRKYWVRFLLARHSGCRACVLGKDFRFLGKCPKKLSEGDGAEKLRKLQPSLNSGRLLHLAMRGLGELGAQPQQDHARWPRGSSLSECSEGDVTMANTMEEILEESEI

For the compound `CC[C@H](C)[C@H](NC(=O)[C@H](Cc1ccccc1)NC(=O)[C@H](CC(=O)O)NC(=O)[C@H](CCCNC(=N)N)NC(=O)[C@H](C)NC(=O)[C@H](C)NC(=O)[C@H](CC(C)C)NC(=O)[C@H](CC(N)=O)NC(=O)[C@H](CC(=O)O)NC(=O)[C@H](CC(C)C)NC(=O)[C@@H](NC(=O)[C@@H](NC(=O)[C@H](CC(N)=O)NC(=O)[C@H](CCSC)NC(=O)[C@H](CCC(=O)O)NC(=O)[C@H](CC(=O)O)NC(=O)[C@H](CO)NC(=O)[C@H](Cc1ccccc1)NC(=O)[C@H](CO)NC(=O)CNC(=O)[C@H](CC(=O)O)NC(=O)[C@H](C)NC(=O)[C@@H](N)Cc1c[nH]cn1)[C@@H](C)O)[C@@H](C)CC)C(=O)N[C@@H](CC(N)=O)C(=O)N[C@@H](Cc1c[nH]c2ccccc12)C(=O)N[C@@H](CC(C)C)C(=O)N[C@H](C(=O)N[C@@H](CCC(N)=O)C(=O)N[C@H](C(=O)N[C@@H](CCCCN)C(=O)N[C@H](C(=O)N[C@H](C(=O)N[C@@H](CC(=O)O)C(=O)O)[C@@H](C)O)[C@@H](C)CC)[C@@H](C)O)[C@@H](C)CC` [Human GLP-2 (1–33)], the “% Binding of WT” value at GLP-2R K231^2.67A was “N.B”; at GLP-2R R242^ECL1E, “N.B”; on GLP-2R WT (1–553), 99.2 ± 2.3%; on GLP-2R N334^ECL2A it was 2.4 ± 1.3 %.

Consider `CC[C@H](C)[C@H](NC(=O)[C@H](Cc1ccccc1)NC(=O)[C@H](CC(=O)O)NC(=O)[C@H](CCCNC(=N)N)NC(=O)[C@H](C)NC(=O)[C@H](C)NC(=O)[C@H](CC(C)C)NC(=O)[C@H](CC(N)=O)NC(=O)[C@H](CC(=O)O)NC(=O)[C@H](CC(C)C)NC(=O)[C@@H](NC(=O)[C@@H](NC(=O)[C@H](CC(N)=O)NC(=O)[C@H](CCSC)NC(=O)[C@H](CCC(=O)O)NC(=O)[C@H](CC(=O)O)NC(=O)[C@H](CO)NC(=O)[C@H](Cc1ccccc1)NC(=O)[C@H](CO)NC(=O)CNC(=O)[C@H](CC(=O)O)NC(=O)CNC(=O)[C@@H](N)Cc1c[nH]cn1)[C@@H](C)O)[C@@H](C)CC)C(=O)N[C@@H](CC(N)=O)C(=O)N[C@@H](Cc1c[nH]c2ccccc12)C(=O)N[C@@H](CC(C)C)C(=O)N[C@H](C(=O)N[C@@H](CCC(N)=O)C(=O)N[C@H](C(=O)N[C@@H](CCCCN)C(=O)N[C@H](C(=O)N[C@H](C(=O)N[C@@H](CC(=O)O)C(=O)O)[C@@H](C)O)[C@@H](C)CC)[C@@H](C)O)[C@@H](C)CC` [Teduglutide], for which the “% Binding of WT” value at GLP-2R K231^2.67A is given as “N.B”; on GLP-2R R242^ECL1E it was “N.B”; at GLP-2R WT (1–553) it was 99.7 ± 1.9%; on GLP-2R N334^ECL2A it was 2.0 ± 2.1 %.
